Measurements published in patent US10696677B2 (Research Triangle Institute, priority 2016, dated 2020).
Entries after “also recorded” stand apart in the source; their conditions may differ. Like-named read-outs stand apart in the source and are kept apart here.

How the values were obtained:
MDCK = MDCK BBB Assay; assay type: in vitro ADME; conditions: for % Permeable: MDCK BBB assay; for MDCK BBB Assay (Basolateral/Apical Peak Area Ratio) Mean: MDCK cells
hCB1 [1] = target: T1, hCB1 (Homo sapiens, UniProt P21554); experiment: functional fluorescent CB1 activated Gαq16-coupled intracellular calcium mobilization assay in CHO-K1 cells; assay type: cell-based; set-up: expressed in transfected cells; host or cells: CHO-K1 (membranes); conditions: average of 3-6 measurements, read-out: Apparent antagonist dissociation constant (Ke) at hCB1
hCB1 [2] = target: T1, hCB1; experiment: radioligand displacement binding at CB1 (membranes of CHO-K1 cells over-expressing receptor); conditions: for CB2 Ki/CB1 Ki selectivity ratio: CB1 versus CB2
Method: (§1) All compounds were characterized by H^1 NMR and evaluated using a calcium mobilization assay. […] Further characterization of select compounds was performed using radioligand displacement of [3H]1 and equilibrium dissociation constant (Ki) values were determined.

hCB2 = hCB2 (Homo sapiens, UniProt P34972); experiment: radioligand displacement binding at CB2 ([3H]CP55940, membranes of CHO-K1 cells over-expressing receptor)
Method: as §1

[3] = in vivo brain penetration, brain and plasma levels by LC/MS/MS; conditions: mouse, po, mice, cassette dosed orally at 2.5 mg/kg, read-out: Brain:Plasma Ratio
Method: Select compounds were chosen for in vivo studies to determine penetration into the CNS. Compounds were cassette dosed orally at 2.5 mg/kg in mice. Brain and plasma samples were collected at 1, 2, 4, and 24 hours post dose and samples were analyzed by LC/MS/MS (Table 5, below). Unperfused brains were used which contain a blood volume of approximately 4%.

mouse model of AS = experiment: alcohol induced liver steatosis mouse model, Oil Red O staining of liver sections; assay type: in vivo, C57BL/6J mice
Text: FIG. 1A-1B. […] (FIG. 1A) Representative liver sections from mice receiving control diet without ethanol+vehicle (left panel), ethanol containing diet+vehicle (center panel) or ethanol containing diet+98 (right panel).
Pathogen-free female C57BL/6J mice, aged 9 weeks (Jackson Laboratories, Bar Harbor, Me., USA) weighing 19-21 g were used in this study. C57BL/6 mice were offered solid PicoLab Certified Rodent LabDiet® 5053 (pellet) ad libitum during the acclimation period following which, all animals were switched to a Lieber-DeCarli 82′ Control (Catalog No: F1259SP, BioServ®) diet which was nutritionally complete. […] Digitized images of mouse liver sections (10 μm in thickness) were assessed semi-quantitatively for degree of steatosis using Image J software (NIH, Bethesda, Md.). Briefly, a 5 in^2 digital grid (Image J Command Menu: Plugin-Analyze-Grid) was placed on each image wherein lipid droplets in 6 grids per image were counted and the average number of oil droplets was recorded for each animal (n=6, per group). […] Statistical significance was determined through ANOVA between treatment and control groups using Graph Pad Prism 7.0 (GraphPad Software Inc., La Jolla, Calif., USA) at a confidence level of *p<0.001.
In contrast, the ethanol containing diet caused significant accumulation of lipid droplets (center panel in FIG. 1A). […] The data are quantified in FIG. 1B.

alcoholic steatosis, AS = conditions: past studies; cited from earlier work
[4] = read-out: Binding affinity (Ki) at hCB1, radioligand displacement, CHO-K1 membranes, average of 3-6 measurements
[5] = read-out: Binding affinity (Ki) at hCB2, displacement of [3H]CP55940, CHO-K1 membranes, average of 3-6 measurements

T1 sequence (P21554 whole entry): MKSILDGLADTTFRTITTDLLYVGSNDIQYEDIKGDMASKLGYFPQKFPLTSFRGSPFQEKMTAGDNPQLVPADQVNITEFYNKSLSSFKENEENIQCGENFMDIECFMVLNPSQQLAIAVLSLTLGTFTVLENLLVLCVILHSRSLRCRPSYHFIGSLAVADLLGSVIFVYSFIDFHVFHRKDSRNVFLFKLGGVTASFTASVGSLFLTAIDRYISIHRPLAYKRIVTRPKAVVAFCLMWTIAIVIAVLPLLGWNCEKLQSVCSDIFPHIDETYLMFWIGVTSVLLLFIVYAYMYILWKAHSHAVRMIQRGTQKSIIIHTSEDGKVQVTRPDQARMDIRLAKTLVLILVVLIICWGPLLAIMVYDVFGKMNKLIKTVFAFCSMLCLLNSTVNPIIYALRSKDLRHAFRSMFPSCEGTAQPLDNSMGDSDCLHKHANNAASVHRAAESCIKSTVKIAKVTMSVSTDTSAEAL
hCB2, sequence (P34972 whole entry): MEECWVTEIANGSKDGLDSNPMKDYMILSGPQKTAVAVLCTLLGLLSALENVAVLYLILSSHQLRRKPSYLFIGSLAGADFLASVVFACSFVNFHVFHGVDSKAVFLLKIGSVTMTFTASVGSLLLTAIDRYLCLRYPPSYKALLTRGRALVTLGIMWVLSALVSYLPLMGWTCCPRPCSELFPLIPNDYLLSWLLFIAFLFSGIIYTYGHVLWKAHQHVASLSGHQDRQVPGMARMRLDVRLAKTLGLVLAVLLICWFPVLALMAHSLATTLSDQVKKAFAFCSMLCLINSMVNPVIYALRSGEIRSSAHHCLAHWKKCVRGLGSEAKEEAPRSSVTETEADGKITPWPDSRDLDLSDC

% Permeable (MDCK)	MDCK BBB Assay (Basolateral/Apical Peak Area Ratio) Mean (MDCK)	Kb (hCB1 [1])	CB2 Ki/CB1 Ki selectivity ratio (hCB1 [2])	Ki (hCB2)	Ki (hCB1 [2])	SMILES	Ki (hCB1 [2]; [4])	Kp [3]	other results
0%	0.0008	2 nM	26000	53000 nM	–	O=S(=O)(NC1CCN(c2ncnc3c2nc(-c2ccccc2Cl)n3-c2ccc(Cl)cc2)CC1)c1ccc(F)cc1F [Compound 5, N-{1-[8-(2-Chlorophenyl)-9-(4-chlorophenyl)-9H-purin-6-yl]piperidin-4-yl}-2,4-difluorobenzene-1-sulfonamide]	2 nM	–	melting point: 232 to 233 °C
0%	0.0019	44 nM	>11	> 6000 nM	520 nM	N=C(NC1CCN(c2ncnc3c2nc(-c2ccccc2Cl)n3-c2ccc(Cl)cc2)CC1)c1ccc(F)cc1 [Compound 26, N-{1-[8-(2-chlorophenyl)-9-(4-chlorophenyl)-9H-purin-6-yl]piperidin-4-yl}-4-fluorobenzenecarboximidamide]	–	0.16	–
0%	0.001	54 nM	2300	4600 nM	2 nM	Clc1ccc(-n2c(-c3ccccc3Cl)nc3c(N4CCC(Nc5ccccn5)CC4)ncnc32)cc1 [Compound 32, N-{1-[8-(2-chlorophenyl)-9-(4-chlorophenyl)-9H-purin-6-yl]piperidin-4-yl}pyridin-2-amine]	–	–	–
–	–	27 nM	34	240 nM	7 nM	FC(F)Oc1ccc(-n2c(-c3ccccc3Cl)nc3c(N4CCN(Cc5ccccc5Cl)CC4)ncnc32)cn1 [Compound 46, 8-(2-Chlorophenyl)-6-{4-[(2-chlorophenyl)methyl]piperazin-1-yl}-9-[6-(difluoromethoxy)pyridin-3-yl]-9H-purine]	–	–	melting point: 147 to 149 °C
8%	0.082	11.6 nM	–	–	4.7 nM	Clc1ccc(-n2c(-c3ccccc3Cl)nc3c(N4CCN(c5ccc(OCc6ccccc6)cc5)CC4)ncnc32)cc1 [Compound 65, 6-{4-[4-(Benzyloxy)phenyl]piperazin-1-yl}-8-(2-chlorophenyl)-9-(4-chlorophenyl)-9H-purine]	–	–	Binding affinity (Ki) at hCB2 (hCB2; displacement of [3H]CP55940, CHO-K1 membranes, average of 3-6 measurements): inactive
38%	0.379	42.2 nM	51	620 nM	12.1 nM	CCCCC(=O)NC1CCN(c2ncnc3c2nc(-c2ccncc2C)n3-c2ccc(Cl)cc2)CC1 [Compound 90, N-{1-[9-(4-chlorophenyl)-8-(3-methylpyridin-4-yl)-9H-purin-6-yl]piperidin-4-yl}pentanamide]	–	–	–
41%	0.409	27.8 nM	126	1150 nM	9.2 nM	CCCCC(=O)NC1CCN(c2ncnc3c2nc(-c2ccncc2Cl)n3-c2ccc(Cl)cc2)CC1 [Compound 91, N-{1-[9-(4-chlorophenyl)-8-(3-chloropyridin-4-yl)-9H-purin-6-yl]piperidin-4-yl}pentanamide]	–	–	–
0%	0.000	18.5 nM	46	830 nM	17.9 nM	CCCCC(=O)NC1(c2ccccc2)CCN(c2ncnc3c2nc(-c2ccncc2Cl)n3-c2ccc(Cl)cc2)CC1 [Compound 93, N-{1-[9-(4-chlorophenyl)-8-(3-chloropyridin-4-yl)-9H-purin-6-yl]-4-phenylpiperidin-4-yl}pentanamide]	–	–	–
–	–	–	–	–	–	Clc1ccc(-n2c(-c3ccccc3Cl)nc3c(N4CCN(Cc5ccccc5Cl)CC4)ncnc32)cc1 [Compound 98, 6-[4-(2-Chlorobenzyl)piperazin-1-yl]-8-(2-chlorophenyl)-9-(4-chlorophenyl)-9H-purine]	–	0.06	hepatic lipid accumulation / liver steatosis (Oil Red O lipid droplets) (mouse model of AS; ethanol diet-fed mice, 1.25 mg/kg twice daily by oral gavage, two weeks, vs ethanol+vehicle, 1.25 mg/kg): significantly reduced hepatic lipid accumulation; also recorded: statistically significant reduction of liver steatosis; disease progression/development in a mouse model of AS (mouse model of AS; mouse model of alcoholic steatosis): block disease progression/development
–	–	–	–	–	–	Clc1ccc(-n2c(-c3ccccc3Cl)nc3c(N4CCN(Cc5cccc(Cl)c5)CC4)ncnc32)cc1 [Compound 99, 6-[4-(3-Chlorobenzyl)piperazin-1-yl]-8-(2-chlorophenyl)-9-(4-chlorophenyl)-9H-purine]	–	0.09	–
–	–	–	–	–	–	Cc1c(C(=O)NN2CCCCC2)nn(-c2ccc(Cl)cc2Cl)c1-c1ccc(Cl)cc1 [rimonabant]	–	–	reduction of alcoholic steatosis (AS) (alcoholic steatosis, AS): effective in reducing AS

SMILES	% Permeable (MDCK)	MDCK BBB Assay (Basolateral/Apical Peak Area Ratio) Mean (MDCK)	Kb (hCB1 [1])	CB2 Ki/CB1 Ki selectivity ratio (hCB1 [2])	Ki (hCB2)	Ki (hCB1 [2])	Ki (hCB1 [2]; [4])	Kp [3]	other results
O=C(Nc1ccccc1F)NC1CCN(c2ncnc3c2nc(-c2ccccc2Cl)n3-c2ccc(Cl)cc2)CC1 [Compound 19, 3-{1-[8-(2-Chlorophenyl)-9-(4-chlorophenyl)-9H-purin-6-yl]piperidin-4-yl}-1-(2-fluorophenyl)urea]	0%	–	–	–	–	–	–	0.03	–
O=C(Nc1ccc(OC(F)F)nc1)N1CCN(c2ncnc3c2nc(-c2ccccc2Cl)n3-c2ccc(Cl)cc2)CC1 [Compound 44, 4-[8-(2-Chlorophenyl)-9-(4-chlorophenyl)-9H-purin-6-yl]-N-[6-(difluoromethoxy)pyridin-3-yl]piperazine-1-carboxamide]	–	–	–	–	74000 nM	–	4 nM	0.18	melting point: 118 to 120 °C
CC(C)S(=O)(=O)N1CCN(c2ncnc3c2nc(-c2ccccc2Cl)n3-c2ccc(Cl)cc2)CC1 [Compound 80, 8-(2-Chlorophenyl)-9-(4-chlorophenyl)-6-{4-[(1-methylethyl)sulfonyl]piperazin-1-yl}-9H-purine]	0%	0.000	1.5 nM	–	–	–	1.4 nM	–	Ki (hCB2; [5]): 978 nM
CCCCS(=O)(=O)N1CCN(c2ncnc3c2nc(-c2ccccc2Cl)n3-c2ccc(Cl)cc2)CC1 [Compound 81, 8-(2-Chlorophenyl)-9-(4-chlorophenyl)-6-[4-(butylsulfonyl)piperazin-1-yl]-9H-purine]	5%	0.053	0.4 nM	871	–	–	0.6 nM	–	Ki (hCB2; [5]): 505 nM
CC(C)CS(=O)(=O)N1CCN(c2ncnc3c2nc(-c2ccccc2Cl)n3-c2ccc(Cl)cc2)CC1 [Compound 82, 8-(2-Chlorophenyl)-9-(4-chlorophenyl)-6-{4-[(2-methylpropyl)sulfonyl]piperazin-1-yl}-9H-purine]	0%	–	0.2 nM	–	2840 nM	–	2 nM	–	–
